According to patent US9440967B2, “1H-pyrrolo [2, 3 -B] pyridine derivatives and their use as radical quenchers” (Arizona Board of Regents on Behalf of Arizona State …, priority 2012, dated 2016):
Structures can show the parent of a compound that is named as a salt.

Assays:
[1] = James et al. (2005) J Biol. Chem. 280, 21295-21312; cited from earlier work
CEM leukemia cells [2] = assay: Mitochondrial membrane potential (Δψm) assay, TMRM staining (FACS); assay type: cell-based, Human; settings: CEM cells pretreated 16 h, then 5 mM DEM 120 min, 250 nM TMRM; FIG. 3 and 4
Description: FIG. 3. Representative flow cytometric two-dimensional color density dot plot analyses of mitochondrial membrane potential (ΔΨm) in leukemia CEM cells stained with 250 nM TMRM and analyzed using FL2-H channel as described in the experimental section. The percentage of cells with intact ΔΨm is indicated in the top right quadrant of captions. Representative example from at least three independent experiments. A total of 10000 events were recorded for each sample and analyzed with the CellQuest software (BD Biosciences).
FIG. 4. A bar graph representation of means the percentage of cells with intact ΔΨm recorded by FACS. Data are expressed as means±SEM of three independent experiments run in duplicate.
Measurement of Mitochondrial Membrane Potential (Δψm) (FACS). For the determination of Δψm, CEM leukemia cells were pre-treated with or without the test compounds for 16 h. The cells were treated with 5 mM DEM for 120 minutes, collected by centrifugation at 300×g for 3 minutes and then washed twice with phosphate buffered saline. The cells were re-suspended in HSSB buffer and incubated at 37° C. in the dark for 15 minutes with 250 nM TMRM (a cationic dye which accumulates within mitochondria in accordance with the Δψm Nernst potential). Cells were collected by centrifugation at 300×g for 3 minutes and then washed twice with phosphate buffered saline. The samples were analyzed immediately by flow cytometry using 488 nm excitation laser and the FL2-H channel. The results obtained were verified in three independent experiments. The protonophore FCCP (10 μM) was used to dissipate the chemiosmotic proton gradient […] and served as a control for loss of Δψm. […] The results were verified by repeating the experiments in duplicate.

CEM leukemia cells [3] = assay: Lipid peroxidation, C11-BODIPY581/591 oxidation in cell culture (FACS); assay type: cell-based, Human; settings: CEM cells pretreated 16 h with 2.5 and 5 μM compound, then 5 mM DEM 90 min; compared with α-tocopherol; FIG. 2
Description: FIG. 2. Comparison of the lipid peroxidation in CEM leukemia cells depleted of glutathione detected by utilizing the oxidation-sensitive fatty acid probe C-11 BODIPY^581/591 using flow cytometry. Increased C-11 BODIPY-green fluorescence (oxidized form), a measure of intracellular lipid peroxidation, was determined by increasing the geometric mean fluorescence intensity (GMFI) of C-11 BODIPY-green relative to the untreated control. A bar graph representing the percentage of the geometric mean fluorescence intensity (GMFI) of C-11 BODIPY-green fluorescence relative to a treated control is shown. Data are expressed as the mean±SEM (n=3). α-TOH is α-tocopherol.
Lipid peroxidation in CEM leukemia cells was detected by utilizing the oxidant-sensitive lipophilic probe C11 BODIPY^581/591. Briefly, CEM cells (5×10^5 cell/mL) were treated with the test compounds at final concentrations of 2.5 and 5 μM, and incubated at 37° C. for 16 h in a humidified atmosphere containing 5% CO2 in air. Cells were treated with 1 μMC11 BODIPY^581/591 in phenol red-free RPMI-1640 media and incubated at 37° C. in the dark for 30 minutes. The cells were washed twice with phosphate buffered saline and oxidative stress was induced with 5 mM DEM in phenol red-free RPMI-1640 media for 90 minutes. Treated cells were collected by centrifugation at 300×g for 3 minutes and then washed twice with phosphate buffered saline. Cells were re-suspended in 250 μL of phosphate buffered saline and were analyzed by FACS (FACS Calibur flow cytometer, Becton Dickinson) to monitor the change in intensity of the C11 BODIPY^581/591-green (oxidized) fluorescence signal. A total of 10000 events were recorded for each sample and analyzed with the CellQuest software (BD Biosciences). The results were verified by repeating the experiments in duplicate. Results are expressed as the relative percentage of treated control (DEM).

CEM cells [4] = assay: Reactive oxygen species (ROS) assay, DCFH-DA flow cytometry, glutathione depleted with diethyl maleate; assay type: cell-based, Human; settings: CEM cells pretreated 16 h with 1, 2.5 and 5 μM compound, then 5 mM DEM 50 min, FIG. 1; for protection against ROS production (DCF fluorescence): compared with α-tocopherol
Description: FIG. 1. Representative flow cytometric histograms overlay showing ROS production in CEM cells. Following pretreatment with the indicated compounds (1, 2.5 and 5 μM) for 16 h, the cells were treated with 5 mM diethyl maleate (DEM) for 50 min to deplete glutathione. The cells were washed in phosphate-buffered saline, and suspended in phosphate-buffered saline containing 20 mM glucose. Cells were loaded with 10 μM dichlorodihydrofluoresceindiacetate (DCFH-DA) for 20 min, and the green fluorescence (DCF) was measured by flow cytometry using the FL1-H channel. […] A total of 10000 events were recorded for each sample and analyzed with the CellQuest software (BD Biosciences). Increased DCF fluorescence, a measure of intracellular oxidation and ROS production, was determined by a shift in DCF fluorescence to the right on the x-axis of the FACS histogram. […] Data are expressed as the mean±SEM (n=3). α-TOH is α-tocopherol.
Cellular ROS production can be monitored using 2′,7′-dichlorodihydrofluorescein diacetate (DCFH-DA) (LeBel et al. (1992) Chem. Res. Toxicol. 5, 227-231) (Molecular Probes, Eugene, Oreg., USA), a membrane permeable and oxidant-sensitive fluorescent dye. DCFH-DA is a non-fluorescent derivative of fluorescein that emits fluorescence after being oxidized by hydrogen peroxide and other ROS. The emitted fluorescence is directly proportional to the concentration of hydrogen peroxide. DCFH-DA is nonionic and nonpolar and is easily taken up by cells. Once inside the cell, DCFH-DA is hydrolyzed by cellular esterases to non-fluorescent DCFH which traps the dye in the cell. In the presence of ROS including hydrogen peroxide, DCFH is oxidized to the highly fluorescent compound dichlorofluorescein (DCF). The intracellular DCF fluorescence is used as an index of cellular ROS production.
Cellular oxidative stress was induced by pharmacological depletion of glutathione (GSH) using the chemical diethylmaleate (DEM). ROS production was assessed by monitoring DCF fluorescence. Leukemic CEM cells (ATCC®, catalogue number CRL-2264) were cultured in RPMI (GIBCO, Grand island, NY, USA) with 10% FCS, 2 mM glutamine (HyClone, South Logan, Utah, USA) and 1% penicillin-streptomycin mix antibiotics (Cellgro, Manassas, Va., USA) supplements. CEM cells (5×10^5 cell/mL) were plated (1 mL) in 24-well plate and treated with the invention compounds (final concentration 1, 2.5, and 5 μM), and incubated at 37° C., 5% CO2 for 16 hours. The compounds tested were prepared by first making stock solutions (2.5 mM) in dimethylsulfoxide (DMSO). Cells were treated with 5 mM DEM for 50 minutes and collected by centrifugation at 300×g for 3 min and then washed twice with Hanks' Balanced Salt Solution (HSSB) buffer (Sigma, St. Louis, Mo. USA). Cells were re-suspended in HSSB buffer+20 mM glucose and incubated at 37° C. in the dark for 20 min with 10 μM DCFH-DA. Cells were collected by centrifugation at 300×g for 3 min and then washed twice with HSSB buffer. The samples were analyzed immediately by flow cytometry (Becton-Dickinson FACS Caliber), (Cell Quest software, BD Biosciences) using 488 nm excitation laser and FL1-H channel 538 nm emission filter. In each analysis, 10,000 events were recorded after cell debris were electronically gated out. Results obtained were verified by repeating experiments N=3 independent experiments. Authentic hydrogen peroxide was used as a positive control.

CEM cells [5] = assay: Trypan blue cell viability assay of DEM-treated cells; assay type: cell-based, Human; settings: CEM cells pretreated 16 h, then 5 mM DEM 5.5 h; FIG. 5
Description: FIG. 5. Trypan blue exclusion assay of CEM cells treated with test compounds for 16 h before exposure to 5 mM diethyl maleate for 5.5 h. At the time of assay, >80% of the DEM-treated cells were trypan blue positive, whereas in the non-DEM treated control, >95% of the cells were viable. Cell viability was expressed as the percentage of control. Results are an average of three independents trials. α-TOH is α-tocopherol.
Cell viability determined by trypan blue exclusion assay: This technique was used to assess the cytoprotective effects of the invention compounds in cultured cells pharmacologically treated to induce cell death by GSH depletion. DEM was used to deplete cellular GSH and induce oxidative stress. The viability of DEM-treated CEM cells was determined by their ability to exclude the dye trypan blue. Viable cells exclude trypan blue; whereas, non-viable cells take up the dye and stain blue. Briefly, CEM lymphoblasts (CCL-119) were grown in RPMI 1640 medium (GIBCO, Grand island, NY, USA) supplemented with 10% fetal calf serum, 2 mM glutamine (HyClone, South Logan, Utah, USA), 1% penicillin-streptomycin mix (Cellgro, Manassas, Va., USA). Cells were seeded at a density of 5×10^5 cells/mL and treated with different concentrations of the invention compounds. Cells were incubated at 37° C. in a humidified atmosphere of 5% CO2 in air for 16 hours. After pre-incubation, the cells were treated with 5 mM DEM for 5.5 h. Cell viability was determined by staining cells with 0.4% trypan blue using a hemacytometer. At least 500 cells were counted for each experimental group. At the time of assay, >80% of DEM-treated cells were trypan blue positive; whereas, in non-DEM treated control cell cultures>95% cells were viable. Cell viability was expressed as the percentage of control. Data are expressed as means±S.E.M (n=3).

Compound	calculated octanol-water partition coefficient [1]	prevention of loss of Δψm (mitochondrial depolarization) (CEM leukemia cells [2])	protection against lipid (membrane) peroxidation (C11-BODIPY-green fluorescence) (CEM leukemia cells [3])	protection against ROS production (DCF fluorescence) (CEM cells [4])	cytoprotection (cell viability, trypan blue exclusion) (CEM cells [5])	melting point	intensity of DCF fluorescence (CEM cells [4])
COC1=C(OC)C(=O)C(C/C=C(\C)CC/C=C(\C)CC/C=C(\C)CC/C=C(\C)CC/C=C(\C)CC/C=C(\C)CC/C=C(\C)CC/C=C(\C)CC/C=C(\C)CCC=C(C)C)=C(C)C1=O [coenzyme Q10]	> 10^20	–	–	–	–	–	–
CCCCCCCCCCCCCCCCc1nc2c(c(C)c1O)CCN2C [Compound 1c, 1,4-Dimethyl-6-hexadecyl-2,3-dihydro-1H-pyrrolo[2,3-b]pyridin-5-ol trifluoroacetic acid salt]	–	less effective in preventing mitochondrial depolarization	Reduced protection	intermediate protection	–	–	–
Cc1c(C)c2c(c(C)c1O)CC[C@@](C)(CCC[C@H](C)CCC[C@H](C)CCCC(C)C)O2 [α-tocopherol, reference compound]	–	–	–	–	significantly reduced cell death	–	–
CCCCCCCCCCCCCCCCc1cc(C)c2c(n1)N(C)CC2 [Example 10, 1,4-Dimethyl-6-hexadecyl-2,3-dihydro-1H-pyrrolo[2,3-b]pyridine]	–	–	–	–	–	43 to 45 °C	–
CCCCCCCCCCc1nc2c(c(C)c1O)CCN2C [Compound 1b, 1,4-Dimethyl-6-decyl-2,3-dihydro-1H-pyrrolo[2,3-b]pyridin-5-ol trifluoro acetic acid salt]	–	the most effective in preventing mitochondrial depolarization	significantly better protection than was achieved with α-tocopherol	significantly better protection than α-tocopherol	more effective in cytoprotection than was α-TOH	–	significant decrease in the intensity of DCF fluorescence in a dose-dependent manner
CCCCCc1nc2c(c(C)c1O)CCN2C [Compound 1a, 1,4-Dimethyl-6-pentyl-2,3-dihydro-1H-pyrrolo[2,3-b]pyridin-5-ol trifluoroacetic acid salt]	–	less effective in preventing mitochondrial depolarization	no protection	reduced protection	–	–	–
CCCCCCCCCCCCCCCCc1nc2c(c(C)c1OC(C)=O)CCN2C [Compound 2c, 1,4-Dimethyl-6-hexadecyl-2,3-dihydro-1H-pyrrolo[2,3-b]pyridin-5-yl acetate]	–	less effective in preventing mitochondrial depolarization	Reduced protection	intermediate protection	–	–	–
CCCCCCCCCCc1nc2c(c(C)c1OC(C)=O)CCN2C [Compound 2b, 1,4-Dimethyl-6-decyl-2,3-dihydro-1H-pyrrolo[2,3-b]pyridin-5-yl acetate]	–	the most effective in preventing mitochondrial depolarization	results comparable to α-TOH	significantly better protection than α-tocopherol	more effective in cytoprotection than was α-TOH	–	significant decrease in the intensity of DCF fluorescence in a dose-dependent manner
CCCCCc1nc2c(c(C)c1OC(C)=O)CCN2C [Compound 2a, 1,4-Dimethyl-6-pentyl-2,3-dihydro-1H-pyrrolo[2,3-b]pyridin-5-yl acetate]	–	less effective in preventing mitochondrial depolarization	no protection	reduced protection	–	–	–
